Tests used:
[1] = biological target: T1, human NPP3 (Homo sapiens, UniProt O14638); test: NPP3 colorimetric assay, p-Nph-5'-TMP as substrate; type: biochemical; conditions: 20 µg/mL (12 µM)
T1 construct: Soluble and purified human NPP3, prepared as previously described; made in house
T1 sequence (O14638 31-875 limits assumed): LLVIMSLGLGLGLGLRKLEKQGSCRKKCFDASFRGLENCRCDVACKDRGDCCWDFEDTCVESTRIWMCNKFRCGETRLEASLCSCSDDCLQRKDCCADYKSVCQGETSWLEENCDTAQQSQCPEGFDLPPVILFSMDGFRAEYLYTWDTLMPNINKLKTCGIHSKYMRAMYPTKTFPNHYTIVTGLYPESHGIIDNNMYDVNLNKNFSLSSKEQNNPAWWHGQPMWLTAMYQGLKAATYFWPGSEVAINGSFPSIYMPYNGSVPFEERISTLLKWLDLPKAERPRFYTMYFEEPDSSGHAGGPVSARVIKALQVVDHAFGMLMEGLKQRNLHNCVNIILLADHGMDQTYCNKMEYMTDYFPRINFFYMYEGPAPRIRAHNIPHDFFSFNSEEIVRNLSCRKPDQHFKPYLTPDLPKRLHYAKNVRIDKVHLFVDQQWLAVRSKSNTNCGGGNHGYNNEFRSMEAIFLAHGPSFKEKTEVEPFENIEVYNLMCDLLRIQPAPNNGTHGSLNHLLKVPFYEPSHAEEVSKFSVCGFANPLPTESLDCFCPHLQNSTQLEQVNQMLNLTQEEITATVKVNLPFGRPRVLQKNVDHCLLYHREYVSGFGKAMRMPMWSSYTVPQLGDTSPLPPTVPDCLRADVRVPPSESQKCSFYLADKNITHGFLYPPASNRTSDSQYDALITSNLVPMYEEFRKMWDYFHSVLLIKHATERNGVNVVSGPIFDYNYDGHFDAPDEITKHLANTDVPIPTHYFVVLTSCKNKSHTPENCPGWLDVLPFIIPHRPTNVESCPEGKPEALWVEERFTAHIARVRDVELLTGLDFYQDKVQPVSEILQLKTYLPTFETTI
Protocol: Compounds 1, 2, 5, 6, and 7 were screened at different concentrations using 400 μM of p-nitrophenyl thymidine monophosphate (p-Nph-5´-TMP) as substrate to study potential inhibition of NPP3 and NPP5 using a colorimetric assay as previously described ([21]). Soluble and purified human NPP3, prepared as previously described ([22]), and human NPP5 ([23]) were diluted in the assay buffer (50 mM TRIS HCl, 2 mM CaCl2, and 0.2 mM ZnCl2, pH 9.00), and 0.09 µg of NPP3, or 0.4 µg of NPP5 were employed. The mixtures were incubated for 30 min at 37°C in case of NPP3, and for 100 min at 37°C in case of NPP5, and the reactions were subsequently terminated by adding 20 μL of 1.0 N aq. NaOH solution. The assay is based on the enzymatic ester hydrolysis of p-Nph-5’-TMP which results in the formation of the yellow p-nitrophenolate anion. The absorption was measured at 400 nm using a BMG PheraStar FS plate reader (BMG Labtech GmbH, Ortenberg, Germany). Each analysis was repeated three times with triplicate measurements.

[2] = biological target: T2, human CD73 (Homo sapiens, UniProt P21589); test: CD73 radioactive assay, [2,8-3H]AMP; type: biochemical; conditions: 20 µg/mL (12 µM)
T2 sequence (P21589 27-574): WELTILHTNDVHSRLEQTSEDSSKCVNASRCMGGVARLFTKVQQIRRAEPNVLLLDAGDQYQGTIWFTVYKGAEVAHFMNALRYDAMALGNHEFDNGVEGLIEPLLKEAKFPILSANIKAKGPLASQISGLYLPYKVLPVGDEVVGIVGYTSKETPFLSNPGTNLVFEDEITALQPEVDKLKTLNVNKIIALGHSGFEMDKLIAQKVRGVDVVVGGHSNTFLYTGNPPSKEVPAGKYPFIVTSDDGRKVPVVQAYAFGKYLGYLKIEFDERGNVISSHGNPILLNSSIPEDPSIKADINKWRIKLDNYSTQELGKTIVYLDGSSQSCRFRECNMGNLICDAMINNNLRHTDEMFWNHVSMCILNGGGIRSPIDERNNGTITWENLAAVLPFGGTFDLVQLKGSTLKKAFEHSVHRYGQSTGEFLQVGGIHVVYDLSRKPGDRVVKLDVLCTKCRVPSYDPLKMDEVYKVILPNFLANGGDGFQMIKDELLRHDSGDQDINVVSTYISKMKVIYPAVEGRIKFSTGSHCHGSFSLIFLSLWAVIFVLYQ
Protocol: The assay was performed essentially as previously described ([32]). The enzymatic reaction was performed by mixing 0.36 ng of human CD73 ([33]) with test compound in assay buffer (25 mM Tris, 140 mM sodium chloride, 25 mM sodium dihydrogen phosphate, pH 7.4) and 5 µM of [2,8-^3H]AMP [(specific activity 7.4x10^8 Bq/mmol (20 mCi/mmol)), American Radio-labeled Chemicals, MO, USA, distributed by Hartmann Analytic, Germany]. Compound 7 was used at 800 µg/mL and compound 6 at 20 µg/mL for the selectivity test, while for initial screening compound 5 was tested at a concentration of 55 µM and 6 at 30 µM, and 1 and 2 were tested at 50 IU/mL ( Supplementary Figure 1 ). The enzymatic reaction was performed for 25 min at 37°C in a shaking water bath. Then, 500 µL of cold precipitation buffer (100 mM lanthanum chloride, 100 mM sodium acetate, pH 4.00) was added to stop the reaction and to facilitate precipitation of free phosphate and unconverted [2,8-^3H]-AMP. […] After washing each reaction vial three times with 400 µL of cold (4°C) demineralized water, 5 mL of the scintillation cocktail (ULTIMA Gold XR, PerkinElmer, MA, USA) was added and the radioactivity was measured by scintillation counting (TRICARB 2900 TR, Packard/PerkinElmer; counting efficacy: 49-52%). […]

[3] = cited from earlier work

Compound: CO[C@H]1O[C@H](COS(=O)(=O)O)[C@@H](O[C@@H]2O[C@@H](C(=O)O)[C@@H](O[C@H]3O[C@H](COS(=O)(=O)O)[C@@H](O[C@@H]4O[C@H](C(=O)O)[C@@H](O[C@H]5O[C@H](COS(=O)(=O)O)[C@@H](O)[C@H](O)[C@H]5NS(=O)(=O)O)[C@H](O)[C@H]4O)[C@H](OS(=O)(=O)O)[C@H]3NS(=O)(=O)O)[C@H](O)[C@H]2OS(=O)(=O)O)[C@H](O)[C@H]1NS(=O)(=O)O [Compound 6, Fondaparinux]
- NPP3 inhibition, selectivity study [1]: no effect
- CD73 inhibition, selectivity study [2]: no effect
- half-life [3]: 17 h

Source: PMC10497752, “Heparins are potent inhibitors of ectonucleotide pyrophosphatase/phospho-diesterase-1 (NPP1) – a promising target for the immunotherapy of cancer” (Frontiers in Immunology, 2023)
